Results on 2 compounds are retold here after patent publication US20180318285A1, “METHODS FOR TREATMENT OF AUTISM SPECTRUM DISORDERS” (PRESIDENT AND FELLOWS OF HARVARD COLLEGE, priority 2015, published 2018).

The conditions of data set [1]: cited from earlier work.
The subject of data set [2] is MeCP2 hemizygous male mice. The data set can be described thus: In vivo topotecan treatment by intracerebroventricular osmotic pump: survival and behavior score. Also noted: species or system mouse. The settings on record: 25 μM topotecan in 28-day osmotic pump to right lateral ventricle, 8 week old mice, N=7-8. As for the experimental part:
MeCP2 hemizygous male mice at 8 weeks of age (Jackson Labs) were separated into two equal groups based weight. Using standard stereotaxic techniques, cannula (Alzet, Brain Infusion Kit 3) were guided to the right lateral ventricle (from bregma; A/P 1 mm, LV 1 mm) and connected to an osmotic pump (Alzet, 1004, 28-day release) that was implanted subcutaneously. The osmotic pumps had been previously loaded with either vehicle (50 mM tartaric acid) or 25 μM topotecan and primed at 37° C. for approximately 2 days prior to implantation. All mice survived surgery and the following postoperative day. Survival monitoring began on postoperative day 2 and behavioral scoring began on postoperative day 4. MeCP2 behavior was scored as previously reported by Guy et al. Science 2005. Briefly, 6 behavioral domains are monitored to capture the progression of the MeCP2 phenotype: locomotor activity, gait, hindlimb clasp, tremor, breathing, and overall condition. Each behavioral domain is scored as 0 (absence), 1 (mild to moderate), or 2 (severe), and summed to give the total behavioral score. Survival statistics: p=0.09; Mantel-Cox. Behavioral statistics: * p<0.05; 2-way ANOVA, Fisher's LSD. N=7-8.

For data set [3], the system named is MeCP2 knockdown primary cortical neurons. Nature of the data set: Ribosomal RNA (Bioanalyzer 18S/28S) and total RNA content of MeCP2 knockdown neurons treated with topotecan. Format: cell-based, mouse. To be noted: 50 nM topotecan.
The test system of data set [4] is MeCP2-repressed (MR) long genes in MeCP2 knockdown primary cortical neurons. The data set can be described thus: Nanostring nCounter expression of MeCP2-repressed long genes in MeCP2 shRNA knockdown primary cortical neurons treated with topotecan. The data set is classed as cell-based, mouse. The protocol: Primary cortical neurons were prepared from E16.5 mouse embryos and cultured as described by Kim et al. For lentiviral-mediated shRNA knockdown, virus was prepared as described in Tiscornia et al.^48 using the MeCP2 shRNA and control shRNA plasmids previously validated in Zhou et al.^49. Virus was concentrated and titrated using the GFP signal expressed from IRES GFP in the virus. After one day in vitro (DIV), cells were infected with lentivirus (knockdown or control) at an MOI of ˜5, such that >90% of cells were infected. […] RNA samples were processed and analyzed using the Nanostring nCounter assay as described above, with the exception that 6 control genes were used for normalization. […]
For non-amplification-based gene expression analysis, Nanostring nCounter reporter CodeSets were designed to detect candidate MeCP2-repressed genes in 250 ng of total RNA extracted from MeCP2 KO and R306C mice. […] Briefly, total RNA was incubated at 65° C. with reporter and capture probes in hybridization buffer overnight, and captured probes were purified and analyzed on the nCounter Digital Analyzer. […] Significant differences between wild-type and MeCP2 KO or MeCP2 R306C samples (p<0.01) were also detected by paired two-tailed t-test comparing the paired mean values for each gene (averaged across samples within each genotype) between genotypes

The structures appear in SMILES notation. Where two headings read alike, the source gives them in different places.

On to `COc1cccc2c1C(=O)c1c(O)c3c(c(O)c1C2=O)C[C@@](O)(C(=O)CO)C[C@@H]3O[C@H]1C[C@H](N)[C@H](O)[C@H](C)O1` [doxorubicin], for which the “doxorubicin concentrations in the brain” value is “no detectable increase” in data set [1] (injection of the drug alone or the uncoated nanoparticle) and “up to 6 μg/g” in data set [1] (nanoparticles overcoated with polysorbate 80, intravenous injection of 5 mg/kg).

Regarding `CC[C@@]1(O)C(=O)OCc2c1cc1n(c2=O)Cc2cc3c(CN(C)C)c(O)ccc3nc2-1` [topotecan, Topotecan], in data set [2], the “Behavioral statistics, p (2-way ANOVA, Fisher's LSD), total behavioral score, topotecan versus vehicle” value is listed as below 0.05 and the “Survival statistics, p (Mantel-Cox), topotecan versus vehicle” value is 0.09. In addition, the “effect on decreased ribosomal RNA content of neurons lacking MeCP2” value in data set [3] is “partially reverses the decreased ribosomal RNA content”. Also, the “concentration of topotecan that most effectively reverses overexpression of long genes” value in data set [4] (MeCP2 knockdown cortical neurons) worked out at 50 nM. In addition, the “reversal of long gene misregulation (up-regulation of long genes after MeCP2 knockdown)” value in data set [4] (cultured cortical neurons, MeCP2 RNAi knockdown, topotecan from DIV 4 to DIV 10) is on record as “dose-dependent reversal of long gene misregulation”.
